Assay results from article PMC6112376, “Comprehensive Analyses and Prioritization of Tox21 10K Chemicals Affecting Mitochondrial Function by in-Depth Mechanistic Studies” (Environmental Health Perspectives, 2018).
Read-outs that look alike come from different tables or passages of the source.

Key:
rat primary hepatocytes [1] = experiment: MMP assay in rat primary hepatocytes; details: for IC50: Rattus norvegicus, Hepatocyte, read-out: MMP assays IC50 (µM) Rat Hepatocytes
HepG2 cells [2] = details: cited from earlier work
HepG2 cells [3] = experiment: cells; details: Homo sapiens; for IC50: HepG2, read-out: MMP assays IC50 (µM) HepG2; for Emax: HepG2, read-out: MMP assays efficacy (%) HepG2
rat primary hepatocytes [4] = tested on: rat primary hepatocytes
[5] = read-out: MMP assays IC50 (µM), qHTS-HepG2
[6] = read-out: MMP assays IC50 (µM) qHTS-HepG2

SMILES | IC50 (rat primary hepatocytes [1]) [µM] | MMP assays efficacy (%) qHTS-HepG2 (HepG2 cells [2]) [%] | IC50 (HepG2 cells [2]; [5]) [µM] | IC50 (HepG2 cells [3]) [µM] | Emax (HepG2 cells [3]) [%] | MMP assays efficacy (%) Rat Hepatocytes (rat primary hepatocytes [4]) | MMP assays IC50 (µM) Rat Hepatocytes (rat primary hepatocytes [1]) | IC50 (HepG2 cells [2]; [6]) [µM]
COc1cccc2c1C(=O)c1c(O)c3c(c(O)c1C2=O)C[C@@](O)(C(=O)CO)C[C@@H]3O[C@H]1C[C@H](N)[C@H](O[C@@H]2CCCCO2)[C@H](C)O1 [Pirarubicin] | 0.03 | -68±19 | 0.6 ± 0.46 | 0.69 | 53 | -39±8% | – | –
Cc1ccccc1C(=O)Nc1ccc(C(=O)N2CCCC(O)c3cc(Cl)ccc32)c(C)c1 (stereo not drawn) [Tolvaptan] | 17.4 ± 2 | -65±11 | 17.4 ± 8.01 | 19.4 | 50 | -67±60% | – | –
O=C1C(I)=CC(=C(c2cc(I)c(O)c(I)c2)c2ccccc2C(=O)O)C=C1I [Iodophthalein] | 7.32 ± 0.6 | -95±6 | 5.31 ± 1.76 | 4.35 | 98 | -96±3% | – | –
CCOc1nc2cccc(C(=O)OC(C)OC(=O)OC3CCCCC3)c2n1Cc1ccc(-c2ccccc2-c2nnn[nH]2)cc1 (stereo not drawn) [Candesartan cilexetil] | – | -124±13 | – | 11.2 | 101 | inactive | inactive | 15.9 ± 4.62
COc1ccc(C(=O)c2ccccc2O)c(O)c1 [2,2'-Dihydroxy-4-methoxybenzophenone] | 11.1 ± 5.21 | -98±6 | – | 5.24 | 103 | -47±18% | – | 9.89 ± 1.04
C=C1/C(=C\C=C2/CCC[C@]3(C)[C@@H]([C@H](C)CCCC(C)(C)O)CC[C@@H]23)C[C@@H](O)C[C@@H]1O [Calcitriol] | 22.4 ± 7.17 | -94±17 | – | 15.5 | 75 | -37±8% | – | 14.1 ± 4.15
O=[N+]([O-])c1ccc(Oc2ccc(C(F)(F)F)cc2[N+](=O)[O-])cc1 [Fluorodifen] | 24.1 ± 15 | -89±20 | 27.3 ± 25.1 | 28.2 | 94 | -114±10% | – | –
O=S(=O)(c1ccc(Cl)cc1)c1ccc(Cl)cc1 [4,4'-Dichlorodiphenyl sulfone] | 29.9 ± 2.43 | -99±22 | – | 35.5 | 96 | -72±26% | – | 21.3 ± 6.06
C[C@@H]1O[C@@H](O[C@@H]2C=C3CC[C@@H]4[C@H](CC[C@]5(C)[C@@H](c6ccc(=O)oc6)CC[C@]45O)[C@@]3(C)CC2)[C@H](O)[C@H](O)[C@H]1O [Proscillaridin] | – | -72±4 | 0.09 ± 0.02 | 0.066 | 86 | inactive | inactive | –
C[C@H]1O[C@@H](O[C@H]2CC[C@@]3(C)[C@H](CC[C@@H]4[C@@H]3C[C@@H](O)[C@]3(C)[C@@H](C5=CC(=O)OC5)CC[C@]43O)C2)C[C@H](O)[C@@H]1O[C@H]1C[C@H](O)[C@H](O[C@H]2C[C@H](O)[C@H](O[C@@H]3O[C@H](CO)[C@@H](O)[C@H](O)[C@H]3O)[C@@H](C)O2)[C@@H](C)O1 [Deslanoside] | – | -81±14 | – | 0.44 | 97 | inactive | inactive | 1.84 ± 0.23
COC(=O)N(OC)c1ccccc1COc1ccn(-c2ccc(Cl)cc2)n1 [Pyraclostrobin] | 9.04 ± 1.89 | -116±2 | 6.35 ± 1.92 | 1.26 | 118 | -121±32% | – | –
